Experiment [1] has as its target T1, mouse TGR5 receptor (Mus musculus, UniProt Q80SS6).
T1 construct: expressed in transfected cells; host or cells: HEK293-EBNA (293 c18, ATCC CRL10852), Hygromycin B selection
T1 sequence (Q80SS6 1-329): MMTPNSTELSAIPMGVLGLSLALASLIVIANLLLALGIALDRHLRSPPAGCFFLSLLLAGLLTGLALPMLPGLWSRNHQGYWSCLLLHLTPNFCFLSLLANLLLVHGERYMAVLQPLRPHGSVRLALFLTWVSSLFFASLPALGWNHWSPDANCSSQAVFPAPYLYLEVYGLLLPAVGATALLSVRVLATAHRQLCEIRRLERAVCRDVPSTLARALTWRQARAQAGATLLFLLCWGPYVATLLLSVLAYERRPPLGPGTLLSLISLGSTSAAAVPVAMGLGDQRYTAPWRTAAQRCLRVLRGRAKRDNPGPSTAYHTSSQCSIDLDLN
Nature of the experiment: Mouse TGR5 cAMP production assay (luminescent, DiscoveRx cAMP XS+). In kind it is cell-based. Conditions: HEK293-EBNA cells overexpressing mouse TGR5, luminescent cAMP XS+; coded A-D; read-out: Mouse TGR5 Lum. cAMP Activity (EC50). The source says: Mouse TGR5 cAMP Production Assay
We evaluated compounds of the present invention for their ability to induce cAMP production in HEK-EBNA cells overexpressing the mouse TGR5 receptor. Human embryonic kidney cells (HEK293-EBNA) stably expressing mouse TGR5 receptor were established using the following procedure. Specifically, a commercially-obtained gene encoding mouse TGR5 (accession number BC116914) from Thermo Scientific (Waltham, Mass.) was cloned into an episomal expression vector. The resulting expression plasmid was then transfected into 293 c18 (ATCC® CRL10852™) cells, which express the Epstein-Barr virus nuclear antigen EBNA1 and can support the replication of episomal vectors. Selection for the plasmid was maintained with Hygromycin B. Cells were cultured and maintained in DMEM (Sigma; cat #6429) supplemented with 10% Fetal Bovine Serum, 1% penicillin/streptomycin, 2 mM L-alanine L-glutamine (GlutaMax), and 250 μg/mL Hygromycin.
Two cAMP production assays were developed.
1. Luminescent cAMP Production Assay
In this first cAMP production assay, the cAMP production was measured using DiscoveRx's cAMP XS+ kit following the manufacturer's recommended protocol.
Briefly, HEK293-EBNA cells stably overexpressing mouse TGR5 were harvested using non-enzymatic cell dissociation buffer (Sigma-Aldrich, St. Louis, Mo.), spun down, then resuspended in serum-free DMEM with 500 μM IBMX at a density of 1.25×10^6 cells/mL. 500 μL of cAMP antibody solution was added to […] of cell suspension and incubated at room temperature for 20 min.
Test compounds were serially diluted (half-log dilutions) in DMSO and then further diluted 1:50 in PBS, 10 mM HEPES buffer. 2 μL of serially diluted compound was added to a 384-well low volume plate (Greiner cat #784075) and centrifuged briefly. 2 μL of the cell/cAMP antibody mixture was then added to each compound-containing well and allowed to incubate at room temperature for one (1) hour. Following incubation, the XS+ kits' ED/Lysis/CL Substrate Working Solution was prepared following the manufacturer's recommended protocol and 4 μL was added to each well of the plate. The plate was then incubated for one (1) hour at room temperature. Following incubation, 4 μL of (Enzyme Acceptor) EA reagent was added to the plate and allowed to incubate overnight at room temperature. Luminescent signal was then detected using the Viewlux instrument (Perkin-Elmer, Waltham, Mass.).
In Table 33, EC50 values for both human and mouse cells were determined according to the TGR5 cAMP assays described above.

The target in experiment [2] is T2, human TGR5 receptor (Homo sapiens, UniProt Q8TDU6).
T2 construct: host or cells: CHO-K1 (hTGR5-CHO cells)
T2 sequence (Q8TDU6 1-330): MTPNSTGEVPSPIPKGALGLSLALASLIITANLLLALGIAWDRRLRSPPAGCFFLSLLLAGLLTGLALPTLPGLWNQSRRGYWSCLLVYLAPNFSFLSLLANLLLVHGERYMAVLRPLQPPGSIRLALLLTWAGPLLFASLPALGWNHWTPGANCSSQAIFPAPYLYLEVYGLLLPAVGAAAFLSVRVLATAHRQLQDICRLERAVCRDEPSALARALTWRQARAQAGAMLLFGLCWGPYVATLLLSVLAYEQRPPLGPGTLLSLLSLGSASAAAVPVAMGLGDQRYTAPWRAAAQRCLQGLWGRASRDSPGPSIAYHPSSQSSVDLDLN
Kind of experiment: Human TGR5 cAMP production assay. In kind it is cell-based. The conditions noted are these: human TGR5, luminescent cAMP assay; coded A-D; read-out: Human TGR5 Lum. cAMP Activity (EC50). The method, boiled down:
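CHO-K1 cells stably expressing human TGR5, with IBMX and cAMP antibody, were exposed to half-log serially diluted compound for 1 h at room temperature. cAMP measured by enzyme-fragment complementation luminescence (XS+ kit) after overnight incubation; EC50 values reported.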

Turning to `COc1cnccc1-c1cccc([C@H](C)NS(=O)(=O)c2cccc(Br)c2)c1` [Compound 2BO], the EC50 in experiment [1] was in the range of 1000 to 30000 nM; in experiment [2], 100 to 999 nM.
Regarding `Cc1noc(C)c1-c1cccc(CNS(=O)(=O)c2cccc(Cl)c2)c1` [Compound 2AA], the half-maximal effective concentration (EC50) in experiment [1] and in experiment [2] was 1000 to 30000 nM throughout.
With `COc1cnccc1-c1cccc(C(C)(C)NS(=O)(=O)c2cc(Br)cc(C(F)(F)F)c2)c1` [Compound 2BB], the EC50 in experiment [1] and in experiment [2] was 100 to 999 nM in each case.
As for `O=S(=O)(NCc1cccc(-c2ccncc2)c1)c1cccc(Br)c1` [Compound 2AQ], the EC50 in experiment [1] was above 30000 nM; in experiment [2] it was 100 to 999 nM.
For `O=S(=O)(NCc1cccc(-c2ccncc2C(F)(F)F)c1)c1cccc(C(F)(F)F)c1` [Compound 1BH], the EC50 in experiment [1] and in experiment [2] was 1000 to 30000 nM in each case.
On to `COc1cnccc1-c1cccc([C@@H](C)NS(=O)(=O)c2cccc(C(F)(F)F)c2)c1` [Compound 1BE], for which the EC50 in experiment [1] and in experiment [2] was 100 to 999 nM each time.
Take `C[C@@H](NS(=O)(=O)c1cccc(C(F)(F)F)c1)c1cccc(-c2ccncc2)c1` [Compound 1BB]: the EC50 in experiment [1] lay within 1000 to 30000 nM; in experiment [2], 100 to 999 nM.
For `Cc1ccccc1S(=O)(=O)NCc1cccc(-c2ccncc2)c1` [Compound 2AP], the EC50 was above 30000 nM in experiment [1] and 1000 to 30000 nM in experiment [2].
Take `Cc1noc(C)c1-c1cccc(CNS(=O)(=O)c2ccc(F)c(C(F)(F)F)c2)c1` [Compound 2AE]: the figures for the EC50 in experiment [1] and in experiment [2] were above 30000 nM and 1000 to 30000 nM, respectively.
As for `CC(C)(NS(=O)(=O)c1cccc(C(F)(F)F)c1)c1cccc(-c2ccncc2)c1` [Compound 1AD], the EC50 in experiment [1] is 1000 to 30000 nM; in experiment [2] it was below 100 nM.
The matching figures for `O=S(=O)(NCc1cccc(-c2ccncc2Cl)c1)c1cccc(C(F)(F)F)c1` [Compound 1AQ]: 1000 to 30000 nM and 100 to 999 nM.
The matching figures for `CC(C)(NS(=O)(=O)c1cccc(C(F)(F)F)c1)c1cccc(-c2ccnc3ccccc23)c1` [Compound 1AJ]: 1000 to 30000 nM and 1000 to 30000 nM.
Turning to `O=[N+]([O-])c1ccccc1S(=O)(=O)NCc1cccc(-c2ccncc2)c1` [Compound 2AO], the EC50 in experiment [1] and in experiment [2] was 1000 to 30000 nM each time.
As to `Cc1noc(C)c1-c1cccc(CNS(=O)(=O)c2ccccc2C(F)(F)F)c1` [Compound 2AC], the concentration for a half-maximal effect (EC50) in experiment [1] and in experiment [2] was 1000 to 30000 nM in each case.
Consider `Cc1cncc(F)c1-c1cccc(C(C)(C)NS(=O)(=O)c2cccc(C(F)(F)F)c2)c1` [Compound 1AO], for which the EC50 in experiment [1] and in experiment [2] was 1000 to 30000 nM in each case.
In the case of `C[C@@H](NS(=O)(=O)c1cccc(C(F)(F)F)c1)c1cccc(-c2ccncc2F)c1` [Compound 1BD], the results for the EC50 in experiment [1] and in experiment [2] were 1000 to 30000 nM and 100 to 999 nM, respectively.
Turning to `Cc1cccc(S(=O)(=O)NCc2cccc(-c3ccncc3)c2)c1` [Compound 2AI], the EC50 in experiment [1] and in experiment [2] was 1000 to 30000 nM each time.
`CCC(NS(=O)(=O)c1cccc(C(F)(F)F)c1)c1cccc(-c2ccncc2)c1` (stereo not drawn) [Compound 1BZ]: the EC50 lay within 1000 to 30000 nM in experiment [1] and 100 to 999 nM in experiment [2].
For `COc1cnccc1-c1cccc(C(C)(C)NS(=O)(=O)c2cccc(C(F)(F)F)c2)c1` [Compound 1AI] the same measures were 100 to 999 nM and below 100 nM.
The matching figures for `Cc1cnccc1-c1cccc(CNS(=O)(=O)c2cccc(C(F)(F)F)c2)c1` [Compound 1BF]: 100 to 999 nM and 100 to 999 nM.
On to `C[C@H](NS(=O)(=O)c1cccc(C(F)(F)F)c1)c1cccc(-c2ccncc2)c1` [Compound 1AW], for which the EC50 lay within 1000 to 30000 nM in experiment [1] and 100 to 999 nM in experiment [2].
Consider `COCCOc1cnccc1-c1cccc(C(C)(C)NS(=O)(=O)c2cccc(C(F)(F)F)c2)c1` [Compound 8, N-(2-(3-(3-(2-methoxyethoxy)pyridin-4-yl)phenyl)propan-2-yl)-3-(trifluoromethyl)benzenesulfonamide], for which the figures for the concentration for a half-maximal effect (EC50) in experiment [1] and in experiment [2] were 1000 to 30000 nM and 100 to 999 nM, respectively.
On to `Cc1noc(C)c1-c1cccc(CNS(=O)(=O)c2cc(C(F)(F)F)cc(C(F)(F)F)c2)c1` [Compound 2AH], for which the EC50 in experiment [1] is above 30000 nM; in experiment [2], 1000 to 30000 nM.
As for `CC(C)(NS(=O)(=O)c1cccc(C(F)(F)F)c1)c1cccc(-c2ccnc(Cl)c2)c1` [Compound 1AG], the EC50 lay in the range of 1000 to 30000 nM in experiment [1] and 100 to 999 nM in experiment [2].
As to `CCc1cnccc1-c1cccc(C(C)(C)NS(=O)(=O)c2cccc(C(F)(F)F)c2)c1` [Compound 5AB, N-(2-(3-(3-ethylpyridin-4-yl)phenyl)propan-2-yl)-3-(trifluoromethyl)benzenesulfonamide], the EC50 in experiment [1] is 100 to 999 nM; in experiment [2], below 100 nM.
For `COc1cnccc1-c1cccc([C@H](C)NS(=O)(=O)c2ccccc2[N+](=O)[O-])c1` [Compound 2BP] the same measures were 100 to 999 nM and below 100 nM.
Consider `C[C@H](NS(=O)(=O)c1cccc(C(F)(F)F)c1)c1cccc(-c2ccncc2Cl)c1` [Compound 1AX], for which the half-maximal effective concentration (EC50) in experiment [1] and in experiment [2] was 100 to 999 nM throughout.
For the compound `Cc1cnccc1-c1cccc([C@@H](C)NS(=O)(=O)c2cccc(C(F)(F)F)c2)c1` [Compound 5AH, (R)-N-(1-(3-(3-methylpyridin-4-yl)phenyl)ethyl)-3-(trifluoromethyl)benzenesulfonamide], the figures for the EC50 in experiment [1] and in experiment [2] were 100 to 999 nM and below 100 nM, respectively.
Turning to `COc1cnccc1-c1cccc(C(C)(C)NS(=O)(=O)c2cc(C(F)(F)F)ccc2OC)c1` [Compound 2AW], the EC50 in experiment [1] and in experiment [2] was 1000 to 30000 nM in each case.
In the case of `O=S(=O)(NCc1cccc(-c2ccncc2)c1)c1cccc(C(F)(F)F)c1` [Compound 1AR], the EC50 in experiment [1] lay within 1000 to 30000 nM; in experiment [2] it was 100 to 999 nM.
In the case of `O=S(=O)(NCc1cc(Cl)cc(-c2ccncc2)c1)c1cccc(C(F)(F)F)c1` [Compound 1BV], the results for the EC50 in experiment [1] and in experiment [2] were above 30000 nM and 1000 to 30000 nM, respectively.
For the compound `CCOc1cnccc1-c1cccc(C(C)(C)NS(=O)(=O)c2cccc(C(F)(F)F)c2)c1` [Compound 8AB, N-(2-(3-(3-ethoxypyridin-4-yl)phenyl)propan-2-yl)-3-(trifluoromethyl)benzenesulfonamide], the EC50 in experiment [1] is 100 to 999 nM; in experiment [2] it was below 100 nM.
The matching figures for `O=S(=O)(NCc1cccc(-c2ccncc2)c1)c1cccc(F)c1` [Compound 2AK]: above 30000 nM and 1000 to 30000 nM.
For `CC(C)(NS(=O)(=O)c1ccccc1C(F)(F)F)c1cccc(-c2ccncc2O)c1` [Compound 1BM] the same measures were 100 to 999 nM and below 100 nM.
Regarding `COc1cnccc1-c1cccc(C2(NS(=O)(=O)c3cccc(C(F)(F)F)c3)CC2)c1` [Compound 1BN], the EC50 in experiment [1] and in experiment [2] was 100 to 999 nM throughout.
As for `O=S(=O)(NCc1cccc(-c2ccncc2)c1)c1cccc(Cl)c1` [Compound 2AJ], the EC50 in experiment [1] and in experiment [2] was 1000 to 30000 nM throughout.

For the origin of these results see US11236055B2 (Venenum Biodesign, LLC, priority 2016, dated 2022).
